Experiments:
[1] = tested on: different tumor cell lines (HeLa, Hec1a, SKOV3, MCF-7, Hey, SKBR3); details: lipids mixed with DOPE; all tested cell lines; versus Transfectam, Lipofectamine and DC-Chol; GFP and beta-galactosidase reporter plasmids; FIGS. 5 and 6
Text: In general: The cell lines used HeLa, Hec1a, SKOV3, MCF-7, Hey, SKBR3, T47D, 293 were cultivated according to standard ATCC conditions. Commercial transfection reagents Transfectam®, Lipofectamine™ und Superfect were used according to the manufacturer's instructions. DC-Chol was synthesized as described previously [L. Huang et al. Biochem. Biophys. Res. Commun. 179(1) (1991) 280-285] and was formulated with DOPE for the transfection experiments.
The day before the transfection 40-50000 cells were seeded per well in a 24-well cell culture plate (appr. 70% confluence). For the preparation of the complexes 3 μl (for SKBR3, MCF-7, Hey) respectively 6 μl (for HeLa, Hec1a, SKOV3) of the aqueous lipid reagent (30 mol % lipid #2 respectively #7 respectively #9; 70 mol % DOPE) were added to a solution of each 2 μg of the plasmid-DNA (pEGFP-N1; Clontech Laboratories, Inc; Katalog-Nr. 6085-1) in 300 μl of fcs-free medium and were incubated at room temperature for 30 min. Shortly before the transfection the cell culture medium was replaced with 700 μl fresh medium (14.3% fcs). After addition of the lipid-DNA complexes and incubation of the cells for 48 hours the percentage of GFP expressing fluorescent cells was determined by FACS-analysis. For this the cells were washed with PBS and were separated by trypsination and subsequent centrifugation. The thus obtained cell pellet was resuspended in 500 μl PBS and the percentage of fluorescent cells was determined by FACS-analysis using a FACScan device (Becton Dickinson).

[2] = tested on: breast tumor cells MCF7; details: FIG. 9; for transfection efficiency with pEGFP-N1-plasmid compared with Transfectam: mixtures with 70 mol % DOPE in ethanolic solutions, MCF7; for percentage of transfected cells after pre-complexing of the DNA with protamine sulfate: mixtures with 70 mol % DOPE, ethanolic, DNA pre-complexed with protamine sulfate versus not
Method: The day before the transfection 40-50000 cells were seeded per well in a 24-well cell culture plate (appr. 70% confluence). For the preparation of the complexes 4 μl of the ethanolic lipid reagent (30 mol % lipid #2 respectively #7; 70 mol % DOPE) were added to a solution of each 2 μg of the plasmid-DNA (pEGFP-N1; Clontech Laboratories, Inc; catalog-nr. 6085-1) in 300 μl fcs-free medium and were incubated at room temperature for 30 min. For the transfection in the presence of protamine sulfate 2 μg plasmid-DNA was pre-complexed with 2 μg protamine sulfate in 300 μl serum free medium for 10 min whereupon 4 μl of the lipid reagent were added. Shortly before the transfection the cell culture medium was replaced with 700 μl fresh medium (14.3% fcs). After addition of the lipid-DNA complexes and incubation of the cells for 48 hours the percentage of GFP expressing fluorescent cells was determined by FACS-analysis as described above.

[3] = tested on: eucaryotic cells; details: 10-100 μM chloroquine added to the cell culture medium; cited from earlier work

Row | Compound | transfection efficiency compared with known lipid formulations [1] | transfection efficiency with pEGFP-N1-plasmid compared with Transfectam [2] | percentage of transfected cells after pre-complexing of the DNA with protamine sulfate [2] | effect on the efficiency of the cationic amphiphiles [3]
1 | CC(C)CCC[C@@H](C)[C@H]1CC[C@H]2[C@@H]3CC=C4C[C@@H](OC(=O)N(CCCNc5ccnc6cc(Cl)ccc56)CCN(C)C)CC[C@]4(C)[C@H]3CC[C@]12C.Cl [#7, 7-chloro-4-[N^1-(N^5-carboxycholesteryl)-(N^8-dimethyl)-1,5,8-triaza-octyl]-quinoline Hydrochloride] | higher efficiency | significantly more efficient | significant increase | 
2 | CCCCCCCC/C=C\CCCCCCCC(=O)OC[C@@H](CN(CCCNc1ccnc2cc(Cl)ccc12)CCN(C)C)OC(=O)CCCCCCC/C=C\CCCCCCCC [#9, 7-chloro-4-[N^1-(N^5-(2(R),3-dioleoyloxy)propyl)-(N^8-dimethyl)-1,5,8-triaza-octyl]-quinoline] | higher efficiency |  |  | 
3 | CCN(CC)CCN(CCNc1ccnc2cc(Cl)ccc12)C(=O)O[C@H]1CC[C@@]2(C)C(=CC[C@H]3[C@@H]4CC[C@H]([C@H](C)CCCC(C)C)[C@@]4(C)CC[C@@H]32)C1.Cl [#2, 7-chloro-4-[N^1-(N^4-carboxycholesteryl)-(N^7-diethyl)-1,4,7-triaza-heptyl]-quinoline Hydrochloride] | higher efficiency | significantly more efficient | significant increase | 
4 | CCN(CC)CCCC(C)Nc1ccnc2cc(Cl)ccc12 (centres unmarked) [chloroquine] |  |  |  | significantly increases the efficiency

Reference: patent US20030109699A1, “Amphiphilic quinolylpolyamines as transfer agents for biologically active macromolecules” (priority 1999, published 2003)
